# According to patent US6054437A, “Method for inducing death of neoplastic cells using piperazine derivatives” (Hitachi Chemical Research Center, Inc., priority 1997, dated 2000):
# Entries after “also recorded” stand apart in the source; their conditions may differ. Where a name gives a salt, the structure may show the parent alone. Read-outs that look alike come from different tables or passages of the source.
# What was measured:
# [1] = test system: human colon cancer cells; experiment: Subrenal capsule (SRC) tumor implant assay, colon cancer; format: in vivo, human tumor in BDF/1 mice
# Experimental: FIG. 19 is a graph showing the relationship between the change in size of tumor and the dosage of NCO-700 in a sub-renal capsule assay of human colon cancer in BDF/1 mice.
# (§1) A tumor implant model, where human tumors were implanted into the renal capsule of mice was performed. The tumors successfully escaped the immune system of the mouse and grew over a six-day period. The advantage of this assay is that the effect of chemotherapeutic agents can be tested in vivo. This model was developed at the University of California, Irvine by Stratton et al. (Gynecologic Oncology 17:185-188, 1984). Human tumors were implanted on day one and were exposed to drug on days two-six. The size of the implant was determined at time zero and at the end of five days of drug treatment, and the difference in size of the implanted tumor at day six, when compared to control animals not exposed to drug, is referred to herein as the delta mean.
# The effect of NCO-700 on a colon cancer line was tested in the SRC assay. Three groups of animals (n=18 total) were tested with two concentrations of NCO-700 including. 50 mg/kg and 100 mg/kg. […] These studies confirm the high potential of NCO-700 and related compounds as new anti-neoplastic agents.
# [2] = test system: KB-V-1 (resistant); experiment: Cell survival assay with vinblastine, resistant cells; format: cell-based, human; details: for IC50: Homo sapiens, KB-V1
# Experimental: (§2) where the effect of NCO-700 to enhance cancer cell killing by vinblastine was measured.
# (§3) In the first two in vitro assays, the drug accumulation assay and the cell survival assay, a human pharyngeal carcinoma cell line (KB-V-1) which is highly resistant to anticancer drugs was used. This cell line was developed by Drs. Ira Pastan and Michael Gottesman of the National Cancer Institute, by step-wise selection in colchicine of drug-resistant cells. The control cancer cell line (KB-3), from which the resistant cell lines were derived, is sensitive to anticancer drugs. The resistant KB-V-1 cell line is approximately 275 times more resistant to vinblastine than the sensitive KB-3 line and has a greatly amplified mdr gene which generates the observed resistance.
# (§4) The cell survival experiments shown above were performed by plating KB-3 (sensitive) and KB-V-1 (resistant) cells in 32 mm well plastic dishes at a cell density of 300-500 cells per well. Vinblastine and NCO-700 were added 16 hours after the initial cell plating. After 10 days of incubation at 37°, cell colonies were stained and counted.
# [3] = test system: human cancer cells; experiment: Cancer cell death assays against a number of human cancer cells; format: cell-based; details: compounds alone; analogs at 25 μM (FIGS. 20-25)
# Experimental: Cell death was measured quantitatively by the release of a marker intracellular enzyme, lactate dehydrogenase (LDH), from damaged or killed cells. LDH released into the extracellular fluid, was measured 24 hours after drug exposure to cancer cells and the enzyme activity was determined by the method of Decker et al. (J. Immunolog Methods 15:61-99, 1988).
# As described in Experiment 1, three different assays were performed to measure anti-neoplastic activity of compounds.
# The first assays performed measured the anti-neoplastic activity of NCO-700 analogs in cell death assays against a number of human cancer cells. The results of these experiments are shown in FIGS. 20-25, where a bar graph indicates the activity of a particular analog as measured by the % LDH released, with higher values of LDH released indicating greater anti-neoplastic activity (apoptosis). All analogs were tested at a concentration of 25 μM.
# [4] = test system: human breast cancer cells; experiment: Subrenal capsule (SRC) tumor implant assay, breast cancer; format: in vivo, human tumor in BDF/1 mice
# Experimental: FIG. 18 is a graph showing the relationship between the change in size of tumor and the dosage of NCO-700 in a sub-renal capsule assay of human breast cancer in BDF/1 mice.
# as §1
# The effect of NCO-700 on a breast cancer line was tested in the SRC assay. Three groups of animals (n=18 total) were tested with three concentrations of NCO-700 including, 10 mg/kg, 25 mg/kg and 50 mg/kg. […] These studies confirm the high potential of NCO-700 and related compounds as new anti-neoplastic agents.
# [5] = test system: KB-3 (sensitive cells); experiment: Drug accumulation assay ([3H]-vinblastine), sensitive cells; format: cell-based, human; details: KB-3, 20 μM NCO-700 + vinblastine
# Experimental: 1. Drug Accumulation Assays
# where the effect of NCO-700 on the uptake of radioactive (^3 H)-vinblastine, an anticancer drug, is measured in cultured cancer cells, that are both drug-resistant and drug-sensitive (Reference 3).
# as §3
# Measurement of [^3 H]-vinblastine accumulation was performed by the methods developed in the laboratory of Drs. Gottesman and Pastan (Fojo et al., Cancer Res. 45:3002-3007, 1985). […] After an additional 30 min, the medium was removed, the plates were washed three times in ice-cold phosphate-buffered saline, the cells were detached with trypsin, and radioactivity determined by scintillation counting.
# [6] = test system: KB-3 (sensitive); experiment: Cell survival assay with vinblastine, sensitive cells; format: cell-based, human
# Experimental: as §2, §3, §4
structure (smiles),measurement,setting,value
"CCOC(=O)[C@@H]1O[C@H]1C(=O)N[C@@H](CC(C)C)C(=O)N1CCN(Cc2ccc(OC)c(OC)c2OC)CC1 [NCO-700, Bis[ethyl (2R,3R)-3-[(S)-3-methyl-1-[4-(2,3,4-trimethoxyphenylmethyl)piperazin-1-ylcarbonyl]butylcarbamoyl]oxirane-2-carboxylate] Sulfate]",effect on tumor size,[1]; 50 mg/kg,slight effect
same,effect on tumor size,[1]; 100 mg/kg,significant anti-neoplastic effect
same,IC50,"[2]; KB-V-1, + 25 μM NCO-700, read-out: vinblastine to kill 50% of cells",0.148 µg/mL
same,IC50,"[2]; KB-V-1, + 30 μM NCO-700, read-out: level of vinblastine needed to kill 50% of the tumor cells",0.16 µg/mL
same,enhancement of killing of resistant cells by vinblastine,"[2]; drug-resistant cells, with vinblastine",enhanced killing of the drug-resistant cells; also recorded: dramatic effect; also recorded: highly significant increase in the killing of these cancer cells
same,"anti-neoplastic activity, selectivity among human cancer cells",[3],highly effective as an anti-neoplastic agent versus selective tumors
same,effect on tumor size,[4]; 10 mg/kg,no effect
same,effect on tumor size,[4]; 25 mg/kg,significant anti-neoplastic effect
same,effect on tumor size,[4]; 50 mg/kg,significant anti-neoplastic effect
same,vinblastine accumulation,[5],3.17 ± 0.09 pmole vinblastine/mg protein
same,IC50,"[6]; Homo sapiens, KB-3, + 25 μM NCO-700, read-out: vinblastine to kill 50% of cells",1.6 ng/mL
same,enhancement of killing by vinblastine,[6]; sensitive KB-3 cells,slight enhancement of the killing of sensitive KB-3 cells
